{"source": "paper PMC5522996", "about": "“Big conductance calcium‐activated potassium channel openers control spasticity without sedation” (British Journal of Pharmacology, 2017)", "key": {"mouse vas deferens [1]": {"system": "mouse vas deferens", "test": "Electrically‐evoked contraction of the mouse vas deferens", "type": "cell-based", "settings": "Mus musculus, read-out: EC50, inhibition of electrically‐evoked contraction"}, "mouse vas deferens [2]": {"system": "mouse vas deferens", "test": "βγ‐methylene ATP‐induced contraction of electrically unstimulated vas deferens", "type": "cell-based", "settings": "100 nM, 30 min before βγ‐methylene ATP"}, "Pharmacokinetics in rats": {"test": "Pharmacokinetics in rats", "type": "in vivo, rat", "protocol": "The stability of compounds when subjected to hepatic and plasma degradation was assessed in vitro by Inpharmatica, Cambridge, UK. Compounds (1 μM) were incubated with either pooled mouse liver microsomes (0.1 mg protein mL^−1) or pooled mouse plasma at 37°C for 0, 5, 10, 20 and 40 min before termination with acetonitrile containing warfarin as an analytical internal standard. Samples were centrifuged, and the resultant supernatant analysed for parent compound. The mass responses at baseline were taken as the 100% reference values against which the disappearance of the compound was measured. The natural log of the % remaining values was used to generate linear plots of disappearance of the compounds. Half‐life values were calculated from the slope of these plots. Hepatocyte metabolism was assessed by Cyprotex, Macclesfield, and 10 μM VSN16R was incubated with primary mouse, rat, monkey (Macaque) and human hepatocytes for 1 h, and the presence of metabolites was assessed using liquid […] mass spectroscopy. The stability of VSN16R was assessed in vivo by Inpharmatica, Cyprotex and Charles Rivers, Cambridge. Blood (plasma) samples were obtained prior to and 5 min to 24 h after drug administration of 2–5 mg·kg^−1 i.v. or 5 mg·kg^−1 p.o. VSN16R into outbred mice and rats (n = 3 per time point). In addition, plasma, brain and spinal cord samples were obtained from ABH with spastic EAE. Immediately after blood collection, the brain and spinal cord were removed and then stored at −20°C prior to assay. Tissue samples were weighed, homogenized and centrifuged, and the lysates generated. Brain lysates and plasma were assayed by LC–MS methods by Inpharmatica/Charles Rivers, Cambridge, UK. This was also performed using a Waters Xevo TQ or API4000, AB Sciex mass spectrometer using spiked samples as standards. PK Solutions Software (Summit Research Services, Montrose, CO, USA), AB Sciex Analyst software combined with Thermo Fisher Scientific Watson LIMS processing and reporting software or WinNonLin pharmacokinetic or PK solutions 2.0 software (Summit Research Services, Montrose CO, USA) were used to produce PK parameters. Data are expressed as mean ± SEM. The detection limit of VSN16R was 2 ng·mL^−1 in plasma and brain and 14 ng·mL^−1 in spinal cords. The detection limit of VSN22R was 2 ng·mL^−1 in plasma and 0.1 ng·mL^−1 for VSN44R in plasma. Pharmacokinetics in toxicological samples in rats (n = 6 per group), dogs (n = 6 per group) and humans (n = 6 per group) were performed by Charles Rivers (Edinburgh, UK)."}, "[3]": {"test": "Stability in pooled mouse plasma", "type": "in vitro ADME", "settings": "37°C, upper limit 100 min, read-out: t ½ in plasma", "protocol": "The stability of compounds when subjected to hepatic and plasma degradation was assessed in vitro by Inpharmatica, Cambridge, UK. Compounds (1 μM) were incubated with either pooled mouse liver microsomes (0.1 mg protein mL^−1) or pooled mouse plasma at 37°C for 0, 5, 10, 20 and 40 min before termination with acetonitrile containing warfarin as an analytical internal standard. Samples were centrifuged, and the resultant supernatant analysed for parent compound. The mass responses at baseline were taken as the 100% reference values against which the disappearance of the compound was measured. The natural log of the % remaining values was used to generate linear plots of disappearance of the compounds. Half‐life values were calculated from the slope of these plots. Hepatocyte metabolism was assessed by Cyprotex, Macclesfield, and 10 μM VSN16R was incubated with primary mouse, rat, monkey (Macaque) and human hepatocytes for 1 h, and the presence of metabolites was assessed using liquid […] mass spectroscopy. The stability of VSN16R was assessed in vivo by Inpharmatica, Cyprotex and Charles Rivers, Cambridge. Blood (plasma) samples were obtained prior to and 5 min to 24 h after drug administration of 2–5 mg·kg^−1 i.v. or 5 mg·kg^−1 p.o. VSN16R into outbred mice and rats (n = 3 per time point). […] Data are expressed as mean ± SEM. […]"}, "rats": {"system": "rats", "test": "Reproductive toxicology in rats", "type": "in vivo, rat", "settings": "p.o."}, "[4]": {"test": "Plasma levels in toxicological studies, dogs", "type": "in vivo", "settings": "both sexes, Beagle, dog, po, 30 min following 50 mg·kg^−1 p.o., read-out: VSN16R detected in plasma", "protocol": "Twenty‐eight day toxicology in rats and dogs for Investigational New Drug filing was performed by Charles Rivers (UK). Reproductive toxicology in rabbits was performed by Charles Rivers (Canada). Pharmacokinetic and/or toxicological doses ranged from 5 to 1000 mg·kg^−1 p.o. in Sprague Dawley male and female rats (n = 6‐26 per group), 50–200 mg·kg^−1 p.o. in male and female Beagle dogs (n = 6 per group) and 100–750 mg·kg^−1 p.o. in female New Zealand white rabbits (n = 9 per group). Results are expressed as mean ± SD.\nThe stability of compounds when subjected to hepatic and plasma degradation was assessed in vitro by Inpharmatica, Cambridge, UK. […] Samples were centrifuged, and the resultant supernatant analysed for parent compound. The mass responses at baseline were taken as the 100% reference values against which the disappearance of the compound was measured. […] Half‐life values were calculated from the slope of these plots. Hepatocyte metabolism was assessed by Cyprotex, Macclesfield, and 10 μM VSN16R was incubated with primary mouse, rat, monkey (Macaque) and human hepatocytes for 1 h, and the presence of metabolites was assessed using liquid […] mass spectroscopy. The stability of VSN16R was assessed in vivo by Inpharmatica, Cyprotex and Charles Rivers, Cambridge. […] Data are expressed as mean ± SEM. […]"}, "healthy volunteers": {"system": "healthy volunteers", "test": "Phase I safety study, adverse events", "type": "in vivo, human"}, "[5]": {"system": "spastic ABH mice with EAE", "test": "Hoffman (H) reflex electrophysiology in spastic animals", "type": "in vivo, mouse", "settings": "30mg/kg i.v."}, "[6]": {"target": "T1, hCB2 Receptor (HEK293T.CNR2) (Homo sapiens, UniProt P34972)", "T1 construct": "expressed in transfected cells; host or cells: HEK293T", "T1 sequence (P34972 whole entry)": "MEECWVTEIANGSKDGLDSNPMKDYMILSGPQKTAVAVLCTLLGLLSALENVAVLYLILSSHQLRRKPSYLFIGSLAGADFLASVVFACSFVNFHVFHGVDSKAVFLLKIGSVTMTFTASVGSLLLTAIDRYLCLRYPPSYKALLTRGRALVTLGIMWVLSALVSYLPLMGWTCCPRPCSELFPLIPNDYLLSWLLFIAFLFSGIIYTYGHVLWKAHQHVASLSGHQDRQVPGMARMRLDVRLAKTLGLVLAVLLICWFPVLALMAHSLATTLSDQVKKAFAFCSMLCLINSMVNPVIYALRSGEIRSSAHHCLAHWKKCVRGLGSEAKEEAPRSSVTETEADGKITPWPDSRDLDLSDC", "test": "cAMP assay, HEK293T.CNR2", "type": "cell-based", "settings": "max. tested 10μM"}, "A1": {"target": "T2, A1 (Homo sapiens, UniProt P30542)", "T2 construct": "purchased Cerep; Chantest; DiscoveRx; Multispan; MDS Pharma Services", "T2 sequence (P30542 whole entry)": "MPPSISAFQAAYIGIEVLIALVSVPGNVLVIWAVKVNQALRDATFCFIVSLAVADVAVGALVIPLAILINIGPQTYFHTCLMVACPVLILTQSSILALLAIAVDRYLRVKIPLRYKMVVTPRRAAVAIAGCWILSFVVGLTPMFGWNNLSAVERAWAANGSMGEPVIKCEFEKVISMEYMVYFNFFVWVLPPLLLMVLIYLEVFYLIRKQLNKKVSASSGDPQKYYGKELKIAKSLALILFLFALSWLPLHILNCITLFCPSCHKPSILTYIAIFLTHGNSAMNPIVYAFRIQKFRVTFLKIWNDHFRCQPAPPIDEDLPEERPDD", "test": "Receptor binding profile of VSN16R", "settings": "10µM VSN16R"}, "ML1": {"system": "ML1", "test": "Receptor binding profile of VSN16R", "set-up": "species or system human", "settings": "10µM VSN16R"}, "V1a": {"target": "T3, V1a (Homo sapiens, UniProt P37288)", "T3 construct": "purchased Cerep; Chantest; DiscoveRx; Multispan; MDS Pharma Services", "T3 sequence (P37288 whole entry)": "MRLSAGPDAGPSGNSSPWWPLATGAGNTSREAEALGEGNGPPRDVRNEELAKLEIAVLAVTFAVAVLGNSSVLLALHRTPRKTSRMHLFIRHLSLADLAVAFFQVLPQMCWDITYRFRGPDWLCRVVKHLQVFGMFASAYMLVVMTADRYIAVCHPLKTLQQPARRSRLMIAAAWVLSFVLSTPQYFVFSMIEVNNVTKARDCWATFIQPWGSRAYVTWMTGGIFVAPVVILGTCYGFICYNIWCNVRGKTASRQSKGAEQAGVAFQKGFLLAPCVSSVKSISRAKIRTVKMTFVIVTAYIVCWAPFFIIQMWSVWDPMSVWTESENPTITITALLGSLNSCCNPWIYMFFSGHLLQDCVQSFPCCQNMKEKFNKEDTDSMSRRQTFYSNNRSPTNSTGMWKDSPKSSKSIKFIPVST", "test": "Receptor binding profile of VSN16R", "settings": "10µM VSN16R"}, "SK+Ca channel (KCNN2)": {"target": "T4, SK+Ca channel (KCNN2) (Homo sapiens, UniProt Q9H2S1)", "T4 construct": "purchased Cerep; Chantest; DiscoveRx; Multispan; MDS Pharma Services", "test": "Receptor binding profile of VSN16R"}, "EDG1": {"target": "T5, EDG1 (Homo sapiens, UniProt P21453)", "T5 construct": "purchased Cerep; Chantest; DiscoveRx; Multispan; MDS Pharma Services", "T5 sequence (P21453 whole entry)": "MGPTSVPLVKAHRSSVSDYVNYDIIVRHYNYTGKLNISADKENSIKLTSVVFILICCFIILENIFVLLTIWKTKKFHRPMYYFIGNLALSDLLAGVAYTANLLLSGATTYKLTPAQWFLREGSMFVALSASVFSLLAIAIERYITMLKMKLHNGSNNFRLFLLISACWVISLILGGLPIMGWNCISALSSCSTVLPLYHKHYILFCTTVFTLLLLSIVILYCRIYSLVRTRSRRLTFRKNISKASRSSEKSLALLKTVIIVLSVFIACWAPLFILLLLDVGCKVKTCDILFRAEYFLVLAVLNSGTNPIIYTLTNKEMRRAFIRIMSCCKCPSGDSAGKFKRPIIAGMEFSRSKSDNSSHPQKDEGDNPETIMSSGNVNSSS", "test": "Receptor binding profile of VSN16R", "settings": "10µM VSN16R"}, "Na+-Ca2+ exchanger": {"system": "Na+-Ca2+ exchanger", "test": "Receptor binding profile of VSN16R", "set-up": "species or system human", "settings": "10µM VSN16R"}, "CYP450 3A5": {"target": "CYP450 3A5 (Homo sapiens, UniProt P20815)", "sequence (P20815 whole entry)": "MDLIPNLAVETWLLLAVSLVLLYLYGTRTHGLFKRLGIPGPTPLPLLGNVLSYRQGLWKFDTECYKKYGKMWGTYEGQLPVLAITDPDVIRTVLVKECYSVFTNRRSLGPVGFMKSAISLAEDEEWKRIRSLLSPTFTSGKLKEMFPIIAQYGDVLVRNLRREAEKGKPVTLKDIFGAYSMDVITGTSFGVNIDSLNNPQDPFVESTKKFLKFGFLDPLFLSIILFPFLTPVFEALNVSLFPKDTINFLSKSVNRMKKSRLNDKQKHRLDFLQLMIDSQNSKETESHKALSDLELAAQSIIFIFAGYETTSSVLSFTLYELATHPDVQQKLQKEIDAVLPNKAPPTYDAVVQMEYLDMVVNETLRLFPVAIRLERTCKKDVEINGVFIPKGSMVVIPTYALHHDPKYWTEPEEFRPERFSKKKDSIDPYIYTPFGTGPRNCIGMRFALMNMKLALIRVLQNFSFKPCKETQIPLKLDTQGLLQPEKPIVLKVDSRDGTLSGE", "excerpt": "IC50 Inhibition of substrate binding\n(§1) Inhibition of binding of either 3-cyano-7-ethoxycoumarin, dibenzylfluorescein or 7-benzyoxy-4-\n(§2) (trifluoromethyl) coumarin in human enzyme transfected BTI NN-5B1-4 cells or Sf9 insect cells or\n(§3) inhibition of dextromethorphan substrate to CYP450 2D6 in liver microsomes."}, "CYP450 1A2": {"target": "CYP450 1A2 (Homo sapiens, UniProt P05177)", "sequence (P05177 whole entry)": "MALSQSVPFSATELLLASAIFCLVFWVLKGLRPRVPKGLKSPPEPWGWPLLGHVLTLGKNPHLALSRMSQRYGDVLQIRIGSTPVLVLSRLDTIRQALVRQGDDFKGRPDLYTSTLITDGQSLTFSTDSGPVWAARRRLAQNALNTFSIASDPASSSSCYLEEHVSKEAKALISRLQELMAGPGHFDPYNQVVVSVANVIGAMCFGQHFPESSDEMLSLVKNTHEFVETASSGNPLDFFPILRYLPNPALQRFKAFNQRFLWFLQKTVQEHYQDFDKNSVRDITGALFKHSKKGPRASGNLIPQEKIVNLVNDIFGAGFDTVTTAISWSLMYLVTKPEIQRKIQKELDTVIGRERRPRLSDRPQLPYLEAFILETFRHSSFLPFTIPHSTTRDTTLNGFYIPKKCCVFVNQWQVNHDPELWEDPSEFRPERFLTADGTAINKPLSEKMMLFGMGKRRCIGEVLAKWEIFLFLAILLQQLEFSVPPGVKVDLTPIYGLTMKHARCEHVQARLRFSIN", "test": "CYP450 inhibition of substrate binding", "excerpt": "IC50 Inhibition of substrate binding\nas §1, §2, §3"}, "[7]": {"settings": "first 12 h following p.o. dosing of rats"}}, "note": "“Also recorded” adds a separate entry of the source.", "data": [{"smiles": "C[C@H](CO)NC(=O)c1cccc(/C=C\\CCCC(=O)N(C)C)c1", "note": "[VSN16R]", "values": [{"measurement": "EC50", "setting": "mouse vas deferens [1]", "value": 0.01, "unit": "µM"}, {"measurement": "Effect on βγ‐methylene ATP‐induced contractions", "setting": "mouse vas deferens [2]", "value": "does not inhibit; also recorded: did not affect"}, {"measurement": "Faecal elimination", "setting": "Pharmacokinetics in rats; [7]", "value": "approximately 1 % of the dose"}, {"measurement": "Renal excretion", "setting": "Pharmacokinetics in rats; [7]", "value": "less than 0.5 % of the dose"}, {"measurement": "bioavailability", "setting": "Pharmacokinetics in rats; in vivo, po, 5 mg·kg^−1 p.o., rat", "value": 40, "unit": "%"}, {"measurement": "half-life", "setting": "Pharmacokinetics in rats; rat, plasma, po, 5 mg·kg^−1 p.o., rats, read-out: Elimination half‐life", "value": 43, "unit": "min"}, {"measurement": "half-life at 1 μM", "setting": "[3]", "value": "> 100", "unit": "min"}, {"measurement": "Reproductive toxicology safe level", "setting": "rats", "value": 1000, "unit": "mg·kg^−1"}, {"measurement": "concentration at 30 min", "setting": "[4]", "value": 82, "unit": "µM"}, {"measurement": "Vomiting or issues of taste", "setting": "healthy volunteers; encapsulated drug, human studies", "value": "no vomiting or issues of taste were reported"}, {"measurement": "Sedation in humans", "setting": "healthy volunteers; in vivo", "value": "does not induce sedation"}, {"measurement": "Serious adverse events", "setting": "healthy volunteers; multiple ascending dose b.i.d.", "value": "no serious adverse events"}, {"measurement": "Subjects with a possible side effect of the treatment", "setting": "healthy volunteers; multiple ascending dose b.i.d., 3/18 subjects", "value": 16.7, "unit": "%"}, {"measurement": "Subjects reporting adverse events", "setting": "healthy volunteers; multiple ascending dose b.i.d., 6/18 subjects", "value": 33.3, "unit": "%"}, {"measurement": "Serious adverse drug‐related events", "setting": "healthy volunteers; single ascending dose", "value": "No serious adverse drug‐related events occurred"}, {"measurement": "Adverse events reported", "setting": "healthy volunteers; single ascending dose 25–800 mg", "value": 14.3, "unit": "%"}, {"measurement": "Subjects with a possible associated effect with treatment", "setting": "healthy volunteers; single ascending dose, 5/42 subjects", "value": 11.9, "unit": "%"}, {"measurement": "Animals with H reflex inhibited", "setting": "[5]", "value": "3/5"}, {"measurement": "Activity of VSN16R (Max. Tested)", "setting": "[6]", "value": "No Activity"}, {"measurement": "Activity", "setting": "A1", "value": "Negligible Activity"}, {"measurement": "Activity", "setting": "ML1", "value": "Negligible Activity"}, {"measurement": "Activity", "setting": "V1a", "value": "Negligible Activity"}, {"measurement": "Activity", "setting": "SK+Ca channel (KCNN2); 10µM VSN16R", "value": "Negligible Activity"}, {"measurement": "Block of apamin binding to KCa2.2 channels", "setting": "SK+Ca channel (KCNN2); transfected cells", "value": "failed to block the binding of apamin"}, {"measurement": "Activity", "setting": "EDG1", "value": "Negligible Activity"}, {"measurement": "Activity", "setting": "Na+-Ca2+ exchanger", "value": "Negligible Activity"}, {"measurement": "IC50", "setting": "CYP450 3A5", "value": "> 10", "unit": "µM"}, {"measurement": "IC50", "setting": "CYP450 1A2", "value": "> 10", "unit": "µM"}]}]}
